The test system of one experiment is L-DTP (EPI) cells. Nature of the experiment: CCK8 survival of drug-resistant L-DTP (EPI) cells, single and combined drugs. In kind it is cell-based. The note with it: drug-resistant L-DTP (EPI) cells produced by continuously adding EPI for 9 days, optimal concentration of Pola. Here is the method:
(§1) Furthermore, CCK8 is used and drugs are used in drug-resistant L-DTP cells in a single form and combined form separately.
(§2) After the cells adhered to walls, a series of Pola from high to low concentrations were prepared. A most optimal concentration of the Pola was found. […] Cl values of the L-DTP cells were calculated by Calcusyn software.

Another experiment deals with AR. Nature of the experiment: Immunohistochemistry of AR in prostate tissue sections (Example 4). In kind it is in vivo, mouse. To be noted: 30 days administration after relapse, Enza 10 mg/Kg, Pola 20 mg/Kg, combined 10 + 20 mg/Kg, NC group 94. From the text:
(§3) The mice were correspondingly gavaged. […] The mice were sacrificed and their prostate cancers were photographed, weighed and subjected to immunohistochemistry.

Experiment [1] concerns mouse model of spontaneous prostate cancer with overexpression of C-MYC (Hi-Myc). Kind of experiment: Hi-Myc mouse model of prostate cancer, prostate weight and HE staining (Example 4). In kind it is in vivo. To be noted: for Average prostate weight of mice: 30 days administration after relapse caused by drug resistance, gavage once every three days, Enza 10 mg/Kg, Pola 20 mg/Kg, combined 10 + 20 mg/Kg, NC group 100.1 mg; for average prostate weight: 10 mg/Kg gavage once every three days.
Source text: A mouse model of spontaneous prostate cancer with overexpression of C-MYC (Hi-Myc) was established. […] A part of the mice were sacrificed and their prostate cancers were photographed and weighed. […]. The remaining mice were continuously administered according to the above method for 30 days. […]. […] At this time, the mice were divided into different groups immediately to study effects of combined use of drugs.
as §3

The subject of a further experiment is PRDX5. Kind of experiment: Immunohistochemistry of PRDX5 in prostate tissue sections (Example 4). Type of experiment: in vivo, mouse. The note with it: 30 days administration after relapse, Enza 10 mg/Kg, Pola 20 mg/Kg, combined 10 + 20 mg/Kg, NC group 61.7.
Source text: as §3

For another experiment, the system named is L-DTP (Enza) cells. Nature of the experiment: CCK8 survival of drug-resistant L-DTP (Enza) cells, single and combined drugs. In kind it is cell-based. The note with it: drug-resistant L-DTP (Enza) cells produced by continuously adding Enza for 9 days, optimal concentration of Pola. The method, then: as §1, §2
Experiment [2] relates to mouse model of spontaneous prostate with overexpression of C-MYC (Hi-Myc). Nature of the experiment: Hi-Myc mouse model of prostate cancer, prostate weight (Example 5). Type of experiment: in vivo. To be noted: for Average prostate weight of mice: 30 days administration after relapse, gavage once every three days, Enza 30 mg/Kg, Pola 30 mg/Kg, combined Enza 10 mg/Kg + Pola 20 mg/Kg, NC group 105.4 mg. The source says:
A mouse model of spontaneous prostate with overexpression of C-MYC (Hi-Myc) was established. […] A part of the mice were sacrificed and their prostate cancers were photographed and weighed. […] The remaining mice were continuously administered according to the above method for 30 days. […] The mice were correspondingly gavaged. […] The mice were sacrificed and their prostate cancers were photographed, weighed and subjected to immunohistochemistry.

Where [3] appears, read: 10 mg/Kg gavage once every three days for 30 days.

For the molecule `NCCC(=O)[N-][C@@H](Cc1c[nH]cn1)C(=O)[O-].[Zn+2]` [Pola, polaprezinc], the inhibition rate result in the experiment on L-DTP (EPI) cells and in the experiment on L-DTP (Enza) cells was “no obvious inhibition rate” each time. In addition, in the experiment on AR, the “Expression amount of AR/%” value is recorded as 70.4%. Besides, the “Average prostate weight of mice” value in experiment [1] amounted to 80.625 mg; in experiment [2], 81.2 mg. Further, in experiment [1] (30 days administration after relapse, compared with single use / between single groups), the “effect on drug-resistant CRPC (prostate weight, in words)” value is listed as “does not have a significant effect”. In addition, in the experiment with PRDX5, the “Expression amount of PRDX5/%” value was found to be 74.2%.
Turning to `CNC(=O)c1ccc(N2C(=S)N(c3ccc(C#N)c(C(F)(F)F)c3)C(=O)C2(C)C)cc1F` [Enza, enzalutamide], the “prostate weight compared with the NC group” value in experiment [1] (setting [3]) and in experiment [2] (setting [3]) was “reduced by half” throughout. In addition, the “Average prostate weight of mice” value amounted to 83.3 mg in experiment [1] and 85.9 mg in experiment [2]. Besides, the average prostate weight in experiment [1] (after 30 days of continuous administration, NC group 85.3 mg) is on record as 41.2 mg; in experiment [1] (after 60 days of continuous administration, relapse, NC group 95.6 mg) it was 78.4 mg. The “Expression amount of PRDX5/%” value in the experiment on PRDX5 is 93.6%. In addition, in the experiment with L-DTP (Enza) cells, the inhibition rate entry is listed as “no obvious inhibitory effect”.
Regarding `CC(C)(c1ccc(OCC(O)CO)cc1)c1ccc(OCC(O)CCl)cc1` (stereo not drawn) [EPI, EPI-001], the inhibition rate entry in the experiment with L-DTP (EPI) cells is “no obvious inhibitory effect”.

Source of the values: patent US12533361B2, “Use of polaprezinc in preparing drug for treating castration-resistant prostate cancer” (Jiangnan University, priority 2021, dated 2026).
